Source: paper PMC11468294, “Peptide Amphiphiles as Biodegradable Adjuvants for Efficient Retroviral Gene Delivery” (Advanced Healthcare Materials, 2023)
Entries after “also recorded” stand apart in the source; their conditions may differ. Where a SMILES comes first, the peptide text is derived from it. The star is where a group is joined. X2 = CC/C=C\C/C=C\C/C=C\C/C=C\C/C=C\CCCC(=O)*; X1 = CC/C=C\C/C=C\C/C=C\CCCCCCCC(=O)*; Fmoc = O=C(OCC1c2ccccc2-c2ccccc21)*; Palmitoyl = CCCCCCCCCCCCCCCC(=O)*; Lauroyl = CCCCCCCCCCCC(=O)*

Assays:
[1] = system: HIV-1 infection of TZM-bl cells; assay: HIV-1 infection assay (β-galactosidase luminescence reporter); assay type: cell-based
Description: HIV‐1 Infection Assay: The effect of peptide fibrils on HIV‐1 infection was studied via a luminescence assay for β‐galactosidase, which was reported by TZM‐bl cells upon infection. 10000 TZM‐bl cells were seeded in 180 µl supplemented DMEM one day prior infection. The cells were inoculated with 20 µl PNF solution 1:1 (v/v) mixed with virus (1:500 dilution) after an incubation time of 10 min. The HIV‐1 infection assay was conducted in three technical replicates and repeated in three independent experiments unless stated otherwise. The assay was conducted as described before.^[ [20] ^]

[2] = Zeta-potential measurement; assay type: physicochemical; settings: 1 mg mL-1 in PBS, diluted in 1 mM KCl
Description: Zeta‐potential: 60 µL of the peptides (1 mg mL^−1) were diluted in 600 µL, 1 mM KCl solution and placed in a disposable folded capillary cuvette. All zeta‐potential measurements (Zetasizer, Malvern Instruments) were conducted in triplicates for each sample.

[3] = Microscopic aggregation (fluorescence / confocal microscopy, derived count rate); assay type: physicochemical; settings: fibrils preformed at 1 mg mL-1 in PBS; ThT or Proteostat stain, widefield or confocal microscopy; derived count rate > 1000 kcps as criterion
Description: (§1) Transmission electron microscopy (TEM) measurements, Thioflavin (ThT), zeta‐potential measurements for fibril characterization, ATR‐IR spectra acquisition and the calculation of β−sheet were prepared and conducted analogous to a previous report.^[ [20], [86] ^] […] Fibrils were defined as distinct, if no visible structures could be identified in fluorescence and brightfield microscopy. […] The derived count rate of the zeta‐potential measurement was used as information on the light scattering intensity and turbidity of the sample as a further indicator for microscopic aggregation.^[ [90] ^]
Fluorescence microscopy: 1 µL Fibrils (1 mg mL^−1) were stained with 9 µL, 50 µM ThT. 10 µL of the stained fibrils (0.1 mg mL^−1) were placed on a microscopy glass. Fluorescence microscopy measurements were performed on a Leica DMi8 microscope with 10x air objective and equipped with a Leica MC170 HD camera with a filter setting λem = 527/30 nm upon excitation at λex = 480/40 nm) and processed with the Leica LASX software.
(§2) 7 Effects of PA modifications on properties and activity
(§3) To investigate the effects of modification in the PA sequence, we created various peptide amphiphiles derived from PA1 by varying the (I) hydrophobic moiety, (II) the linkage chemistry and (III) the peptide sequence (Figure S12, SI chapter 7.1 – 7.3). The color code for sequence representation is yellow for the hydrophobic moiety, blue for cationic amino acids, red for non-polar amino acids, purple for polar uncharged amino acids, and green for anionic amino acids. To be concise, only the summarized information will be discussed, all original data for the peptides are summarized in the (Figure S26 - […]
(§4) Figure S12 Summarized overview of peptide amphiphile library in which systematic variations the original sequence […]
(§5) chemistry and (III) the peptide sequence on infectivity enhancement and degradability (see SI chapter 7.1 – 7.3).
(§6) In the following section a compound is considered infectivity enhancing if n-fold infectivity at 1.3 µM is larger than 2. A compound is considered to form µm-sized aggregates if visible particles were observed in widefield microscopy (brightfield or ThT-staining filter, objective 10x) or confocal […]
(§7) than 1000 kcps in Zeta-Potential measurements.
(§8) For the degradability only the PAs which could be stained with Proteostat (Figure S26) and were visible in microscopy (Figure S15, Figure S18, Figure S21, and Figure S22) were studied in detail. To determine […]
whether a PA is degraded or not, Proteostat stained PAs which are added to Hela cells (2 µg peptide added to 20.000 cells) and studied via confocal laser scanning microscopy. […]
In the following, we will distinguish between three aggregation types for fibrillar structures: Fibrils which were not aggregating (below resolution limit of the microscope, approx. 650 nm), moderately aggregating (< 50 µm2) and aggregating to large particles (> 50 µm 2).
7.1 Effects of hydrophobic moiety exchange on properties and activity
To investigate the effects of varying hydrophobic moieties on assembly, aggregation and activity , we

[4] = TEM morphology of peptide assemblies; assay type: physicochemical; settings: diluted from DMSO stock (10 mg mL-1) to 1 mg mL-1 in PBS, incubated 1 d at rt
Description: as §1
TEM: 5 µL of fibrils (1 mg mL^−1) were placed on 300 mesh, Formvar layered copper grids. After 10 min incubation time, the grids were staining with 4% uranyl acetate solution for 2.5 min. After
three washing steps with dd H2O excess solvent was removed by filter paper. Measurements
were performed on a Jeol 1400 electron microscope with 120 kV acceleration voltage.

[5] = system: HeLa cells; assay type: in vitro ADME; settings: for degradability by cells (in words): HeLa cells, 2 µg peptide added to 20,000 cells, d0 (30 min) vs d3, degradable if number and size of aggregates are reduced after 3 days
Description: Confocal laser scanning microscopy and degradation study with PA library and HeLa cells: Confocal laser scanning microscopy studies were performed for the visualization of the cell‐PA interaction. HeLa cells were seeded one day prior to conducting the assay (20000/well) in an 8‐well IBIDI slide. 2 µL of the preformed peptide fibrils (1 mg mL^−1) were diluted with 2 µL Proteostat (Enzo Life Science, 1 µL stock in 99 µL PBS) and incubated for 10 min and further diluted with medium to receive a final peptide concentration of 10 µg mL^−1. The nucleus of the HeLa cells was stained with Hoechst 33 342 (NucBlue, Thermo Fisher Scientific). The peptide solution mixture was transferred to the HeLa cells and incubated for 30 min at 37°C before washing three times with PBS. The interaction of fibril clusters with cells was monitored after 30 min incubation time on a Stellaris 8 confocal laser scanning microscope (Leica) equipped with a 20x air objective and laser excitation wavelengths of 405 nm (Hoechst), and 561 nm (Proteostat). For the evaluation of aggregate degradation, the samples were further incubated at 37°C for 3 d and analyzed without any additional washing step. The evaluation of aggregate size and number was conducted by analyzing Proteostat stained aggregates via the 3D objects counter function of ImageJ 1.53f51 for 3 individual measurements (area 1008 µm × 1008 µm). […] The number of aggregates were determined by counting aggregates larger than the threshold 10 µm^2 in an area of 1008 µm × 1008 µm and repeated in three technical triplicates.
as §2, §3, §4, §5, §6, §7, §8
whether a PA is degraded or not, Proteostat stained PAs which are added to Hela cells (2 µg peptide added to 20.000 cells) and studied via confocal laser scanning microscopy. Microscopy is conducted at day 0 (d0, after 30 min of incubation) and at day 3 (d3, after 72 h of incubation). The number of aggregates >10 µm2 is counted via 3D object counter in ImageJ in an area of 1008 µm × 1008 µm.
A PA is considered as degradable if the number and the size of aggregates are reduced after 3 days.
The efficiency is determined by the percentual degradation (aggregate number at d3 / aggregate number at d0). Three technical replicates were evaluated for each sample. A large deviation in number and size of aggregates represents a nonhomogeneous distribution and polymorphism of aggregates.

[6] = infectivity enhancing if n-fold at 1.3 µM larger than 2

CC/C=C\C/C=C\C/C=C\CCCCCCCC(=O)N[C@H](C(=O)N[C@H](C(=O)N[C@H](C(=O)N[C@@H](C)C(=O)N[C@@H](C)C(=O)N[C@@H](C)C(=O)N[C@@H](CCCCN)C(=O)N[C@@H](CCCCN)C(=O)N[C@@H](CCCCN)C(N)=O)C(C)C)C(C)C)C(C)C (X1-VVVAAAKKK-NH2)
infectivity enhancement of HIV-1 (in words) [1, 6]: Inactive | infectivity enhancement of HIV-1 (in words) ([1]; infectivity enhancing if n-fold at 1.3 µM larger than 2, listed as alpha linolenic acid): not able to maintain activity | zeta-potential (in words) [2]: neutral zeta-potential | formation of µm-sized aggregates (in words) [3]: do not aggregate | morphology of peptide assemblies / fibril formation (TEM) [4]: cannot self‐assemble into fibrils | morphology of peptide assemblies / fibril formation (TEM) ([4]; listed as alpha linolenic acid): neither forming fibrils, nor it is aggregating or active

CC/C=C\C/C=C\C/C=C\C/C=C\C/C=C\CCCC(=O)N[C@H](C(=O)N[C@H](C(=O)N[C@H](C(=O)N[C@@H](C)C(=O)N[C@@H](C)C(=O)N[C@@H](C)C(=O)N[C@@H](CCCCN)C(=O)N[C@@H](CCCCN)C(=O)N[C@@H](CCCCN)C(N)=O)C(C)C)C(C)C)C(C)C (X2-VVVAAAKKK-NH2)
degradability by cells (in words) [5]: degradable PA | average size of aggregates ([5]; Proteostat-stained PA with HeLa cells, confocal aggregate analysis): 6-7 µm2 | morphology of peptide assemblies / fibril formation (TEM) [4]: structures composed of fibrillar structures

CCCCCCCCCCCCCCCC(=O)N[C@@H](CCCCN)C(=O)NCC(=O)N[C@H](C(=O)N1CCC[C@H]1C(=O)NCC(=O)N[C@H](C(=O)NCC(=O)N[C@@H](CCCCN)C(N)=O)C(C)C)C(C)C (Palmitoyl-KGVPGVGK-NH2)
infectivity enhancement of HIV-1 (in words) [1, 6]: Inactive | formation of µm-sized aggregates (in words) [3]: not forming µm-sized aggregates and forming too few/less aggregates, respectively | morphology of peptide assemblies / fibril formation (TEM) [4]: not forming fibrils; also recorded: cannot self‐assemble into fibrils

CC(C)[C@H](NC(=O)OCC1c2ccccc2-c2ccccc21)C(=O)N[C@H](C(=O)N[C@H](C(=O)N[C@@H](C)C(=O)N[C@@H](C)C(=O)N[C@@H](C)C(=O)N[C@@H](CCCCN)C(=O)N[C@@H](CCCCN)C(=O)N[C@@H](CCCCN)C(N)=O)C(C)C)C(C)C (Fmoc-VVVAAAKKK-NH2)
infectivity enhancement of HIV-1 (in words) [1, 6]: active | formation of µm-sized aggregates (in words) [3]: very large | degradability by cells (in words) [5]: cannot be degraded by cells | morphology of peptide assemblies / fibril formation (TEM) [4]: forming fibrils

CCCCCCCCCCCCCCCC(=O)NCC(=O)NCC(=O)NCC(=O)N[C@@H](CO)C(=O)N[C@@H](CO)C(=O)N[C@@H](CCCCN)C(=O)N[C@@H](CCCCN)C(=O)N[C@@H](CCCCN)C(N)=O (Palmitoyl-GGGSSKKK-NH2)
infectivity enhancement of HIV-1 (in words) [1, 6]: Inactive | formation of µm-sized aggregates (in words) [3]: not forming µm-sized aggregates and forming too few/less aggregates, respectively; also recorded: cannot form µm‐sized aggregates

CCCCCCCCCCCCCCCC(=O)NCC(=O)NCC(=O)N[C@H](C(=O)N[C@H](C(=O)N[C@@H](CCCNC(=N)N)C(=O)N[C@@H](CCCNC(=N)N)C(N)=O)C(C)C)C(C)C [C16-GGVVRR-NH2] (Palmitoyl-GGVVRR-NH2)
infectivity enhancement of HIV-1 (in words) [1, 6]: Inactive | formation of µm-sized aggregates (in words) [3]: not forming µm-sized aggregates and forming too few/less aggregates, respectively; also recorded: cannot form µm‐sized aggregates

CCCCCCCCCCCC(=O)N[C@H](C(=O)N[C@H](C(=O)N[C@H](C(=O)N[C@@H](C)C(=O)N[C@@H](C)C(=O)N[C@@H](C)C(=O)N[C@@H](CCCCN)C(=O)N[C@@H](CCCCN)C(=O)N[C@@H](CCCCN)C(N)=O)C(C)C)C(C)C)C(C)C [C12] (Lauroyl-VVVAAAKKK-NH2)
infectivity enhancement of HIV-1 (in words) [1, 6]: efficient infectivity enhancement | formation of µm-sized aggregates (in words) [3]: large aggregate formation | degradability by cells (in words) [5]: partially degraded

CCCCCCCCCCCCCCCC(=O)NCC(=O)N[C@@H](CCCCN)C(=O)N[C@H](C(=O)NCC(=O)N[C@@H](CO)C(=O)N[C@@H](CCCCN)C(N)=O)C(C)C [C16-GKVGSK-NH2] (Palmitoyl-GKVGSK-NH2)
infectivity enhancement of HIV-1 (in words) [1, 6]: Inactive | formation of µm-sized aggregates (in words) [3]: cannot form µm‐sized aggregates

CCCCCCCCCCCCCCCC(=O)N[C@@H](Cc1c[nH]c2ccccc12)C(=O)N[C@@H](CCC(=O)O)C(=O)N[C@@H](C)C(=O)N[C@@H](CC(C)C)C(=O)N[C@@H](CCCCN)C(=O)N[C@@H](CCCCN)C(N)=O [C16-WEALKK-NH2] (Palmitoyl-WEALKK-NH2)
infectivity enhancement of HIV-1 (in words) [1, 6]: Inactive | formation of µm-sized aggregates (in words) [3]: not forming µm-sized aggregates and forming too few/less aggregates, respectively | morphology of peptide assemblies / fibril formation (TEM) [4]: not forming fibrils; also recorded: cannot self‐assemble into fibrils

C16-disulfide-CVVVAAAKKK-NH2 [PA1 variant with disulfide linker]
reduction of infectivity enhancement relative to the original amide-linked PA ([1]; n-fold at 1.3 µM): approx. 60% | formation of µm-sized aggregates (in words) [3]: not forming visible aggregates
